Assay results from PubChem BioAssay (NCI).
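Five compound concentrations were applied to cells in 96-well plates for 48 hours; endpoints were derived by simple linear interpolation of the resulting dose-response curve. GI50 is the concentration that inhibits growth by half. TGI: total growth inhibition.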

Tests used:
Assay in all cases: NCI-60 cell line screen, 48 h
SNB-78 CNS = test system: SNB-78 CNS
DMS 114 small cell lung = test system: DMS 114 small cell lung
LXFL 529 NSCLC = test system: LXFL 529 NSCLC
DLD-1 colon = test system: DLD-1 colon
XF 498 CNS = test system: XF 498 CNS
M19-MEL melanoma = test system: M19-MEL melanoma
MDA-N = test system: MDA-N
HS 578T breast = test system: HS 578T breast
RXF-631 renal = test system: RXF-631 renal

NNC(=O)/C(=C/c1ccc(Cl)cc1Cl)NC(=O)c1ccccc1
TGI (SNB-78 CNS): > 100 µM
TGI (DMS 114 small cell lung): > 100 µM
TGI (LXFL 529 NSCLC): > 100 µM
TGI (DLD-1 colon): > 100 µM
TGI (XF 498 CNS): > 100 µM
TGI (M19-MEL melanoma): > 100 µM

CN(C)CCCNC(CC#N)CCC#N (configuration not stated)
TGI (MDA-N): > 10 µM
TGI (HS 578T breast): > 10 µM

O=C1CC(c2ccc(O)cc2)C2(O1)C(=O)OC(C(O)CO)C2O (configuration not stated)
TGI (HS 578T breast): > 100 µM

Cc1ccccc1[P+](Cc1ccccc1)(c1ccccc1)c1ccccc1
GI50 (HS 578T breast): 1.83 µM
TGI (HS 578T breast): 11.7 µM

Cc1cc(N(CCC#N)CCC#N)ccc1N=Nc1cccc(C(=O)O)c1
TGI (RXF-631 renal): > 100 µM
TGI (SNB-78 CNS): > 100 µM
TGI (DMS 114 small cell lung): > 100 µM
TGI (LXFL 529 NSCLC): > 100 µM
TGI (DLD-1 colon): > 100 µM
TGI (XF 498 CNS): > 100 µM
TGI (M19-MEL melanoma): > 100 µM

CC1=C(C)C(=O)c2c(cc3ccccn23)C1=O
TGI (RXF-631 renal): 21.7 µM
TGI (SNB-78 CNS): 77.5 µM
TGI (DMS 114 small cell lung): 26.9 µM
TGI (LXFL 529 NSCLC): 28.6 µM
TGI (M19-MEL melanoma): 4.42 µM

O=C(CN1CCOCC1)Nc1nc(-c2ccc(Cl)cc2)cs1
TGI (SNB-78 CNS): > 100 µM
TGI (DMS 114 small cell lung): 65.8 µM
TGI (DLD-1 colon): > 100 µM
TGI (XF 498 CNS): 26.9 µM
TGI (M19-MEL melanoma): > 100 µM

C1C[OH+]CC[OH+]CCNCC[OH+]CC[OH+]CCN1.N.[Cl-].[Pt+4]
GI50 (SNB-78 CNS): 4.15 µM
TGI (SNB-78 CNS): 63.3 µM
GI50 (LXFL 529 NSCLC): 18.2 µM
TGI (LXFL 529 NSCLC): 64 µM
GI50 (DLD-1 colon): 20.2 µM
TGI (DLD-1 colon): > 100 µM

O=c1cc(-c2ccccc2)[nH]c2ccccc12
GI50 (HS 578T breast): 0.458 µM
TGI (HS 578T breast): > 23.2 µM

COC(=O)[C@@]1(C)CC[C@]2(C)CC[C@]3(C)C4=CC=C5C(=CC(=O)C(O)=C5C)[C@]4(C)[C@@H](O)C[C@@]3(C)[C@@H]2C1
GI50 (HS 578T breast): 15.1 µM
TGI (HS 578T breast): 38 µM

Cc1ccc(NC(=O)C(=O)C(C#N)c2ccccc2C)cc1C (configuration not stated)
TGI (SNB-78 CNS): > 100 µM
TGI (DMS 114 small cell lung): > 59.2 µM
TGI (LXFL 529 NSCLC): > 100 µM
TGI (DLD-1 colon): > 100 µM
TGI (XF 498 CNS): > 100 µM

C[C@@H]1C[C@H]2CC[C@H](O2)[C@H](C)C(=O)O[C@@H](C)C[C@@H]2CC[C@@H](O2)[C@@H](C)C(=O)O[C@H](C)C[C@H]2CC[C@H](O2)[C@H](C)C(=O)O[C@@H](C)C[C@@H]2CC[C@@H](O2)[C@@H](C)C(=O)O1
TGI (MDA-N): > 100 µM
TGI (HS 578T breast): 54.3 µM

COc1ccc(-c2nn3c(-c4cc(F)c(Cl)cc4Cl)nnc3s2)cc1
GI50 (HS 578T breast): 43.3 µM
TGI (HS 578T breast): > 100 µM

CN1CCC(n2cnc(-c3ccc(F)cc3)c2-c2ccnc(NCCO)n2)CC1
GI50 (HS 578T breast): > 25 µM
TGI (HS 578T breast): > 25 µM

CSc1ccc(C2OC(=O)c3ccccc32)c2ccccc12 (configuration not stated)
TGI (RXF-631 renal): > 100 µM
TGI (SNB-78 CNS): > 100 µM
TGI (DMS 114 small cell lung): > 100 µM
TGI (LXFL 529 NSCLC): > 100 µM
TGI (DLD-1 colon): > 100 µM
TGI (XF 498 CNS): > 100 µM
TGI (M19-MEL melanoma): > 100 µM

COc1ccc(/C(C#N)=C/c2ccccc2OC)cc1
GI50 (HS 578T breast): 14.3 µM
TGI (HS 578T breast): > 100 µM

CN(C)CCNc1c2c(c(NCCN(C)C)c3[nH]ccc13)C(=O)c1ccccc1C2=O
GI50 (HS 578T breast): 2.74 µM
TGI (HS 578T breast): 9.26 µM

CCCCCCCCCCCCCCCCN1CC2CCCCC2C1 (configuration not stated)
GI50 (HS 578T breast): 11.8 µM
TGI (HS 578T breast): 30.5 µM

CC1=Nc2ccccc2S/C1=C(/C)NNC(=O)C(N)=O
TGI (SNB-78 CNS): > 100 µM
TGI (DMS 114 small cell lung): > 100 µM
TGI (LXFL 529 NSCLC): > 100 µM
TGI (DLD-1 colon): > 100 µM
TGI (XF 498 CNS): > 100 µM
TGI (M19-MEL melanoma): > 100 µM

CN(C)C(=O)OC(Cn1cncn1)c1ccc(Cl)cc1Cl (configuration not stated)
TGI (SNB-78 CNS): > 100 µM
TGI (DMS 114 small cell lung): > 100 µM
TGI (LXFL 529 NSCLC): > 100 µM
TGI (DLD-1 colon): > 100 µM
TGI (M19-MEL melanoma): > 100 µM

COc1ccc(/C=C2\CCCC3=C2N=C2SC(C)=NN2C3c2ccc(OC)c(OC)c2)cc1OC (configuration not stated)
GI50 (HS 578T breast): 30.4 µM
TGI (HS 578T breast): > 100 µM

C/C(=N\NS(=O)(=O)c1ccccc1)c1ccc(Cl)c(Cl)c1
TGI (SNB-78 CNS): > 100 µM
TGI (DMS 114 small cell lung): > 100 µM
TGI (LXFL 529 NSCLC): > 100 µM
TGI (DLD-1 colon): > 100 µM
TGI (XF 498 CNS): > 100 µM
TGI (M19-MEL melanoma): > 100 µM

Cc1ccc(N=Cc2ccc3c(c2)OCO3)cc1C
TGI (RXF-631 renal): > 100 µM
TGI (SNB-78 CNS): > 100 µM
TGI (LXFL 529 NSCLC): > 100 µM
TGI (DLD-1 colon): > 100 µM
TGI (XF 498 CNS): > 100 µM
TGI (M19-MEL melanoma): > 100 µM

Oc1cccc2ccc(N/N=C/c3cc(CN4CCCCC4)c(O)c4ncccc34)nc12
GI50 (HS 578T breast): 0.147 µM
TGI (HS 578T breast): 29.4 µM

CC1=C(Oc2ccccc2)C(CCC(=O)O)c2c(O)cc(Cl)c(O)c21 (configuration not stated)
TGI (RXF-631 renal): > 100 µM
TGI (SNB-78 CNS): > 100 µM
TGI (DMS 114 small cell lung): > 100 µM
TGI (DLD-1 colon): > 100 µM
TGI (XF 498 CNS): > 100 µM
TGI (M19-MEL melanoma): > 100 µM

OC(c1cc(-c2ccccc2)nc2ccc(Cl)cc12)C1CCCCN1 (configuration not stated)
GI50 (HS 578T breast): 3.37 µM
TGI (HS 578T breast): 11.7 µM

O=C(N/C(=C\c1ccc2c(c1)OCO2)c1nc2ccccc2[nH]1)c1ccccc1
TGI (SNB-78 CNS): > 95.9 µM
TGI (DMS 114 small cell lung): 6.08 µM
TGI (LXFL 529 NSCLC): 97.4 µM
TGI (DLD-1 colon): > 100 µM
TGI (XF 498 CNS): 34 µM
TGI (M19-MEL melanoma): 19.8 µM

COc1ccc(-c2csc(N(C(=O)N3CCN(c4cc5c(cc4F)c(=O)c(C(=O)O)cn5C4CC4)CC3)c3ccccc3)n2)cc1
GI50 (HS 578T breast): 1.48 µM
TGI (HS 578T breast): > 100 µM

CC#C[C@]1(O)CC[C@H]2[C@@H]3CCC4=CC(=O)CCC4=C3[C@@H](c3ccc4c(c3)OCO4)C[C@@]21C
GI50 (HS 578T breast): 101 µM
TGI (HS 578T breast): 537 µM

O=C(NCCO)Nc1ccc(-c2nc(N3CCOCC3)c3cccn3n2)cc1
GI50 (HS 578T breast): 0.0889 µM
TGI (HS 578T breast): 0.836 µM

COc1ccc(OC)c(NC(=O)C2=C(C)NC(C)=C(C(=O)Nc3cc(OC)ccc3OC)C2c2ccccc2)c1
TGI (SNB-78 CNS): > 100 µM
TGI (DMS 114 small cell lung): > 100 µM
TGI (LXFL 529 NSCLC): > 100 µM
TGI (DLD-1 colon): > 100 µM
TGI (M19-MEL melanoma): > 100 µM

CC1(C)C(=NNC(=O)C[N+](C)(C)C)C(C)(C)C1=NNC(=O)C[N+](C)(C)C
TGI (RXF-631 renal): > 100 µM
TGI (SNB-78 CNS): > 100 µM
TGI (DMS 114 small cell lung): > 100 µM
TGI (LXFL 529 NSCLC): > 100 µM
TGI (DLD-1 colon): > 100 µM
TGI (XF 498 CNS): > 100 µM
TGI (M19-MEL melanoma): > 100 µM

COc1ccc(OC)c(/C=C2\SC(=S)NC2=O)c1
GI50 (HS 578T breast): 20.7 µM
TGI (HS 578T breast): 55.5 µM

O=[N+]([O-])C1C2C=CC(C2)[C@H]1c1ccco1 (some centres not stated)
TGI (SNB-78 CNS): > 100 µM
TGI (DMS 114 small cell lung): > 100 µM
TGI (LXFL 529 NSCLC): > 100 µM
TGI (DLD-1 colon): > 100 µM
TGI (XF 498 CNS): > 100 µM
TGI (M19-MEL melanoma): > 100 µM

COc1ccc(-c2n/c(=C\c3c(O)[nH]c4ccc(OC)cc34)cc3c2=Nc2ccccc2-3)cc1
GI50 (HS 578T breast): 1.94 µM
TGI (HS 578T breast): 4.82 µM

CC1C=C(OC(=O)c2ccccc2)C(=O)C(n2cc(F)c(=O)[nH]c2=O)O1 (configuration not stated)
TGI (SNB-78 CNS): > 100 µM
TGI (DMS 114 small cell lung): > 100 µM
TGI (LXFL 529 NSCLC): > 100 µM
TGI (DLD-1 colon): > 100 µM
TGI (XF 498 CNS): > 100 µM
TGI (M19-MEL melanoma): > 100 µM
